Data: ChEMBL document CHEMBL6071169, “Maydisens, Sesterterpenoids with Anti-MDR Activity from Bipolaris maydis” (J Nat Prod, 2024)
Active and inactive are the calls of the source. The rule behind the calls is not given here.

Assays:
MDA-MB-453 = test: Cytotoxicity against human MDA-MB-453 cells at 20 uM incubated for 72 hrs by CCK-8 method; assay type: functional, cell-based
SW620/AD300 [1] = test: Reversal of paclitaxel resistance in human SW620/AD300 cells assessed as reversal fold by measuring ratio of paclitaxel IC50 to paclitaxel IC50 in presence of test compound at 20 uM and measured after 72 hrs by CCK-8 method; assay type: functional
SW620/AD300 [2] = test: Reversal of paclitaxel resistance in human SW620/AD300 cells assessed as reduction in paclitaxel IC50 at 20 uM and measured after 72 hrs by CCK-8 method (reference value: 3.4 +/- 0.1 microM); assay type: functional, cell-based; details: SW620/AD300, 72 h
LNCaP C4-2B = test: Cytotoxicity against human LNCaP C4-2B cells at 20 uM incubated for 72 hrs by CCK-8 method; assay type: functional, cell-based
A549 = test: Cytotoxicity against human A549 cells at 20 uM incubated for 72 hrs by CCK-8 method; assay type: functional, cell-based
SW620/AD300 [3] = test: Cytotoxicity against human SW620/AD300 cells at 20 uM incubated for 72 hrs by CCK-8 method; assay type: functional, cell-based
SW620/AD300 [4] = test: Inhibition of colony formation in human SW620/AD300 cells assessed as decrease in colony count at 5 uM measured after 7 days in presence of paclitaxel by crystal violet staining based analysis; assay type: functional, cell-based; details: time 7.0 day
SW620/AD300 [5] = test: Induction of cell cycle analysis in human SW620/AD300 cells assessed as increase in accumulation of cells at G2/M phase measured after 24 hrs by flow cytometry analysis; assay type: functional, cell-based; details: dose 5-20 µM
SW620/AD300 [6] = test: Inhibition of colony formation in human SW620/AD300 cells assessed as decrease in colony count at 20 uM measured after 7 days by crystal violet staining based analysis; assay type: functional, cell-based; details: time 7.0 day
SW620/AD300 [7] = test: Induction of cell cycle analysis in human SW620/AD300 cells assessed as increase in accumulation of cells at G0/G1 phase at 5 to 20 uM measured after 24 hrs by flow cytometry analysis; assay type: functional, cell-based; details: dose 5-20 µM
SW620/AD300 [8] = test: Inhibition of colony formation in human SW620/AD300 cells assessed as decrease in colony count at 20 uM measured after 7 days in presence of paclitaxel by crystal violet staining based analysis; assay type: functional, cell-based; details: time 7.0 day
SW620/AD300 [9] = test: Inhibition of colony formation in human SW620/AD300 cells assessed as decrease in colony count at 1 uM measured after 7 days by crystal violet staining based analysis; assay type: functional, cell-based; details: time 7.0 day

IC50 (SW620/AD300 [2]) [nM] | SMILES | Activity (MDA-MB-453) | Ratio IC50 (SW620/AD300 [1]) | Activity (LNCaP C4-2B) | Activity (A549) | Activity (SW620/AD300 [3]) | inhibition (SW620/AD300 [4]) | Activity (SW620/AD300 [5]) | inhibition (SW620/AD300 [6]) | Activity (SW620/AD300 [7]) | inhibition (SW620/AD300 [8]) | inhibition (SW620/AD300 [9])
200 | CC(C)=CC(=O)C[C@H](C)[C@H]1CC[C@]2(C)C[C@@H]3C(C)=CC(=O)[C@H]3/C(CO)=C\C[C@@H]12 | inactive | 17 | inactive | inactive | inactive | – | – | – | – | – | –
50 | CC(C)=CCC[C@H](C)C1=CC[C@]2(C)C[C@@H]3C(C)=CC(=O)[C@H]3/C(CO)=C\C[C@@H]12 | inactive | 72 | inactive | inactive | inactive | Active | Dose-Dependent Effect | inactive | Active | Active | –
– | C/C(=C\CC[C@](C)(O)[C@H]1CC[C@]2(C)C/C=C(\C)CC/C=C(\C)CC[C@@H]12)CO | inactive | – | inactive | inactive | inactive | – | – | – | – | – | –
250 | COC(OC)/C1=C/[C@H](O)[C@H]2[C@@H]([C@@H](C)CCC=C(C)C)CC[C@]2(C)C[C@@H]2C(C)=CC(=O)[C@@H]12 | inactive | 13 | inactive | inactive | inactive | – | – | – | – | – | –
– | C/C1=C/C[C@H]2[C@@H]([C@@H](C)CC/C=C(\C)CO)CC[C@]2(C)C/C=C(\C)CC[C@@H]1O | inactive | – | inactive | inactive | inactive | – | – | – | – | – | –
– | CC(C)=CCC[C@H](C)[C@H]1CC[C@]2(C)C[C@@H]3C(C)=CC(=O)[C@H]3[C@@H](CO)/C=C\[C@@H]12 | inactive | – | inactive | inactive | inactive | – | – | – | – | – | –
– | CC(C)=CCC[C@H](C)[C@H]1CC[C@]2(C)CC3=C(C(=O)C[C@H]3C)/C(CO)=C\C[C@@H]12 | inactive | – | inactive | inactive | inactive | – | – | – | – | – | –
– | C/C1=C/C[C@H]2[C@@H]([C@@H](C)CC/C=C(\C)C(=O)O)CC[C@]2(C)C/C=C(\C)CC[C@@H]1O | inactive | – | inactive | inactive | inactive | – | – | – | – | – | –
– | CC(C)=C/C=C/[C@H](C)[C@H]1CC[C@]2(C)C[C@@H]3C(C)=CC(=O)[C@H]3/C(CO)=C\C[C@@H]12 | inactive | – | inactive | inactive | inactive | – | – | – | – | – | –
– | CC(C)=CCC[C@H](C)C1=CC[C@]2(C)C[C@@H]3C(C)=CC(=O)[C@H]3/C(C=O)=C\C=C\12 | inactive | – | inactive | inactive | inactive | – | – | – | – | – | –
– | C/C1=C\C[C@@]2(C)CC[C@H]([C@@H](C)CC/C=C(\C)C(=O)O)/C2=C/C[C@@]2(C)O[C@@H]2CC1 | inactive | – | inactive | inactive | inactive | – | – | – | – | – | –
1000 | CC(C)=CCC[C@H](C)[C@H]1CC[C@]2(C)C[C@@]3(O)[C@H](C)CC(=O)[C@@H]3/C(CO)=C\C[C@@H]12 | inactive | 3 | inactive | inactive | inactive | – | – | – | – | – | –
– | CC(C)=CCC[C@H](C)[C@H]1CC[C@]2(C)C[C@@H]3C(CO)=CC(=O)[C@H]3/C(C)=C\C[C@@H]12 | inactive | – | inactive | inactive | inactive | – | – | – | – | – | –
– | CC(=O)O[C@H]1C(=O)[C@@]2(C)[C@H]([C@H](OC(=O)c3ccccc3)[C@]3(O)C[C@H](OC(=O)[C@H](O)[C@@H](NC(=O)c4ccccc4)c4ccccc4)C(C)=C1C3(C)C)[C@]1(OC(C)=O)CO[C@@H]1C[C@@H]2O | – | – | – | – | – | – | – | – | – | – | inactive
